Source: patent publication US9751857B2, “Hepatitis B antiviral agents” (NOVIRA THERAPEUTICS, INC., priority 2011, dated 2017)

Key:
[1] = molecular target: HBV C150Bo capsid protein (HBV CA protein) (Hepatitis B virus genotype D subtype adw, UniProt P03147, C107A/C48A/C61A/R150C); test: HBV assembly assay (fluorescence quenching in vitro assembly); format: biochemical; details: for Activity in HBV assembly assay: at 10 μM
[2] = test system: HBV replication in HepG2-2.2.15 cells; test: Dot-blot assay of HBV replication; format: cell-based; details: Hepatitis B virus, 144 h
Experimental: Compounds active in the HBV assembly assay are tested for their activity and toxicity in cellular assay. In the first anti-viral assay, the ability of compounds to inhibit HBV replication in an HBV-producing hepatoma cell line using the dot-blot method is evaluated.
Briefly, confluent monolayers of HepG2-2.2.15 cells are incubated with complete medium containing various concentrations of a test compound. Three days later, the culture medium is replaced with fresh medium containing the appropriately diluted test compound. Six days following the initial administration of the test compound, the cell culture supernatant is collected, and cell lysis is performed. The samples are applied onto Nylos membranes and DNA is immobilized to the membrane by UV cross-linking. After pre-hybridization, the HBV probe is added and the hybridization is performed overnight. The membranes are exposed to the Kodak films; antiviral activity is calculated from the reduction in HBV DNA levels (EC50). The EC50 for antiviral activity is calculated from the dose response curves of active compounds.
In the first anti-viral assay, the ability of compounds to inhibit HBV replication in an HBV-producing hepatoma cell line using the dot-blot method was evaluated.
Confluent monolayers of HepG2-2.2.15 cells were incubated with complete medium containing various concentrations of a test compound. Three days later, the culture medium was replaced with fresh medium containing the appropriately diluted test compound. Six days following the initial administration of the test compound, the cell culture supernatant was collected, and cell lysis was performed. The samples were applied onto Nylos membranes and DNA was immobilized to the membrane by UV cross-linking. After pre-hybridization, the HBV probe was added and the hybridization was performed overnight. The membranes were exposed to the Kodak films; antiviral activity was calculated from the reduction in HBV DNA levels (EC50). The EC50 for antiviral activity was calculated from the dose response curves of active compounds. […]

Sequence of HBV C150Bo capsid protein (HBV CA protein) (P03147 1-150 C48A/C61A/C107A/R150C): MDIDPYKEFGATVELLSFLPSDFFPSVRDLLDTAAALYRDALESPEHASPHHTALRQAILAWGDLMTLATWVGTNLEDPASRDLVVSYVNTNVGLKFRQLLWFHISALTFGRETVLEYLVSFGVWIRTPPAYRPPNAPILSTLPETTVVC

Row | SMILES | Activity in HBV assembly assay [1] | inhibition at 10 µM [2] [%] | EC50 in HBV assembly assay ([1]; control compounds)
1 | O=C(Nc1ccc(F)c(Br)c1)c1cccc(S(=O)(=O)N2CC(O)C2)c1 [compound 407] | + (‘+’ indicates >50% activity at 10 μM) | > 50 | –
2 | CN(CC(O)CO)S(=O)(=O)c1cccc(C(=O)Nc2cccc(Cl)c2)c1 (centres unmarked) [compound 366] | + (‘+’ indicates >50% activity at 10 μM) | > 50 | –
3 | O=C(Nc1ccc(F)c(Cl)c1)c1cccc(S(=O)(=O)NC2CCC(O)C2)c1 (centres unmarked) [compound 1157] | + (‘+’ indicates >50% activity at 10 μM) | > 50 | –
4 | O=C(Nc1cc(F)c(F)c(F)c1)c1ccc(F)c(S(=O)(=O)N2CCC(CCO)CC2)c1 [compound 900] | + (‘+’ indicates >50% activity at 10 μM) | > 50 | –
5 | O=C(Nc1cc(F)c(F)c(F)c1)c1cc(S(=O)(=O)N2CC(O)C2)c(F)cc1Cl [compound 1339] | + (‘+’ indicates >50% activity at 10 μM) | > 50 | –
6 | O=C(Nc1ccc(F)c(C(F)F)c1)c1cccc(S(=O)(=O)N2CCC(O)C(F)C2)c1 (centres unmarked) [820D2] | + (‘+’ indicates >50% activity at 10 μM) | > 50 | –
7 | O=C(Nc1cc(F)c(F)c(F)c1)c1ccc(F)c(S(=O)(=O)C2CCC(CO)C(O)C2)c1 (centres unmarked) [946D2] | + (‘+’ indicates >50% activity at 10 μM) | > 50 | –
8 | O=C(Nc1ccc(F)c(Br)c1)c1cccc(S(=O)(=O)N2CCC(O)(CO)CC2)c1 [compound 758] | + (‘+’ indicates >50% activity at 10 μM) | > 50 | –
9 | CC1CN(S(=O)(=O)c2cccc(C(=O)Nc3cc(F)c(F)c(F)c3)c2)CCC1O (centres unmarked) [610D2] | + (‘+’ indicates >50% activity at 10 μM) | > 50 | –
10 | O=C(Nc1ccc(F)c(Cl)c1)c1ccc(Cl)c(S(=O)(=O)NC2CC(O)C2)c1 (centres unmarked) [compound 1042] | + (‘+’ indicates >50% activity at 10 μM) | > 50 | –
11 | O=C(Nc1ccc(F)c(Cl)c1)c1ccc(F)c(S(=O)(=O)NC2CCC(O)C2)c1 (centres unmarked) [compound 958] | + (‘+’ indicates >50% activity at 10 μM) | > 50 | –
12 | O=C(Nc1cc(F)c(F)c(F)c1)c1ccc(F)c(S(=O)(=O)N2CCC(O)C2)c1 (centres unmarked) [compound 903] | + (‘+’ indicates >50% activity at 10 μM) | > 50 | –
13 | O=C(Nc1cc(F)c(F)c(F)c1)c1ccc(Cl)c(S(=O)(=O)N2CCC(O)CC2)c1 [compound 1057] | + (‘+’ indicates >50% activity at 10 μM) | > 50 | –
14 | COC1CN(S(=O)(=O)c2cccc(C(=O)Nc3cccc(Cl)c3)c2)C1 [compound 191] | + (‘+’ indicates >50% activity at 10 μM) | > 50 | –
15 | O=C(Nc1cc(F)c(F)c(CF)c1)c1cccc(S(=O)(=O)N2CC(O)C2)c1 [compound 803] | + (‘+’ indicates >50% activity at 10 μM) | > 50 | –
16 | O=C(Nc1cccc(Br)c1)c1cccc(S(=O)(=O)N2CCN(c3ccncc3)CC2)c1 [compound 126] | + (‘+’ indicates >50% activity at 10 μM) | > 50 | –
17 | O=C(Nc1cc(F)c(F)c(F)c1)c1cc(S(=O)(=O)NC2CCCCC2O)ccc1Cl (centres unmarked) [compound 1129] | + (‘+’ indicates >50% activity at 10 μM) | > 50 | –
18 | Cc1cc(NC(=O)c2cccc(S(=O)(=O)N3CCN(C(=O)C4CC4)CC3)c2)ccc1F [compound 148] | + (‘+’ indicates >50% activity at 10 μM) | > 50 | –
19 | CCCC(=O)N1CCN(S(=O)(=O)c2cccc(C(=O)Nc3cccc(Br)c3)c2)CC1 [compound 121] | + (‘+’ indicates >50% activity at 10 μM) | > 50 | –
20 | O=C(Nc1ccc(F)c(Br)c1)c1ccc(Cl)c(S(=O)(=O)N2CCC(O)(CO)CC2)c1 [compound 1099] | + (‘+’ indicates >50% activity at 10 μM) | > 50 | –

Row | SMILES | Activity in HBV assembly assay [1] | inhibition at 10 µM [2] [%] | EC50 in HBV assembly assay ([1]; control compounds)
21 | O=C(Nc1ccc(F)c(Cl)c1)c1ccc(F)c(S(=O)(=O)N2CC(O)C2)c1 [compound 953] | + (‘+’ indicates >50% activity at 10 μM) | > 50 | –
22 | O=C(Nc1cccc(Br)c1)c1cccc(S(=O)(=O)N2CC(O)C2)c1 [compound 078] | + (‘+’ indicates >50% activity at 10 μM) | > 50 | –
23 | O=C(Nc1cc(F)c(F)c(F)c1)c1ccc(F)c(S(=O)(=O)N2CCC(O)CC2)c1 [compound 890] | + (‘+’ indicates >50% activity at 10 μM) | > 50 | –
24 | CN(CCO)S(=O)(=O)c1cc(C(=O)Nc2ccc(F)c(Cl)c2)c(Cl)cc1F [compound 1345] | + (‘+’ indicates >50% activity at 10 μM) | > 50 | –
25 | O=C(Nc1cc(F)c(F)c(F)c1)c1cc(S(=O)(=O)N2CCC(O)CC2)ccc1Cl [compound 1149] | + (‘+’ indicates >50% activity at 10 μM) | > 50 | –
26 | O=C(Nc1cc(F)c(F)c(F)c1)c1cc(S(=O)(=O)N2CCC(O)(CO)CC2)ccc1Cl [compound 1189] | + (‘+’ indicates >50% activity at 10 μM) | > 50 | –
27 | O=C(Nc1cc(F)c(F)c(F)c1)c1ccc(F)c(S(=O)(=O)N2CCC(O)C(CF)C2)c1 (centres unmarked) [compound 1283] | + (‘+’ indicates >50% activity at 10 μM) | > 50 | –
28 | O=C(Nc1ccc(F)c(Br)c1)c1cccc(S(=O)(=O)N2CC(O)C(F)C2)c1 (centres unmarked) [compound 826] | + (‘+’ indicates >50% activity at 10 μM) | > 50 | –
29 | O=C(Nc1cc(F)c(F)c(Cl)c1)c1cccc(S(=O)(=O)N2CCC(O)CC2)c1 [compound 595] | + (‘+’ indicates >50% activity at 10 μM) | > 50 | –
30 | O=C(Nc1ccc(F)c(Cl)c1)c1cc(S(=O)(=O)NC2CC(O)C2)ccc1Cl (centres unmarked) [1134CT2] | + (‘+’ indicates >50% activity at 10 μM) | > 50 | –
31 | O=C(Nc1cc(F)c(F)c(Cl)c1)c1ccc(F)c(S(=O)(=O)N2CCC(O)C(F)C2)c1 (centres unmarked) [1135D1] | + (‘+’ indicates >50% activity at 10 μM) | > 50 | –
32 | O=C(Nc1cc(F)c(F)c(F)c1)c1ccc(F)c(S(=O)(=O)N2CCC(O)(CO)CC2)c1 [compound 916] | + (‘+’ indicates >50% activity at 10 μM) | > 50 | –
33 | O=C(Nc1ccc(F)c(Cl)c1)c1cc(S(=O)(=O)N2CCC(O)(CO)CC2)c(F)cc1Cl [compound 1380] | + (‘+’ indicates >50% activity at 10 μM) | > 50 | –
34 | Cc1ccc(S(=O)(=O)N2CCC(O)CC2)cc1C(=O)Nc1cc(F)c(F)c(F)c1 [compound 928] | + (‘+’ indicates >50% activity at 10 μM) | > 50 | –
35 | O=C(Nc1ccc(F)c(Cl)c1)c1cc(S(=O)(=O)N2CCC(O)CC2)ccc1F [compound 885] | + (‘+’ indicates >50% activity at 10 μM) | > 50 | –
36 | O=C(Nc1cc(F)c(F)c(F)c1)c1ccc(F)c(S(=O)(=O)N2CCC(O)C(F)C2)c1 (single isomer, unassigned) [960D2] | + (‘+’ indicates >50% activity at 10 μM) | – | –
37 | COC(=O)C1=C(C)NC(c2ccccn2)=NC1c1ccc(F)cc1Cl (centres unmarked) [HAP-1, reference compound] | – | – | consistent with the literature
38 | O=C(Nc1ccc(F)c(Cl)c1)c1ccc(F)c(S(=O)(=O)N2CCC(CO)C(O)C2)c1 (centres unmarked) [955D2] | + (‘+’ indicates >50% activity at 10 μM) | – | –
39 | O=C(Nc1cc(F)c(F)c(F)c1)c1cc(S(=O)(=O)NC2CC(O)C2)c(F)cc1Cl (centres unmarked) [1374CT2] | + (‘+’ indicates >50% activity at 10 μM) | – | –
